US11090323B2, “Pharmaceutical composition, methods for treating and uses thereof” (Boehringer Ingelheim International GmbH, priority 2013, dated 2021)

Columns and labels:
the diabetic = conditions: metformin on its own; cited from earlier work
[1] = tested on: patients with T2DM and CKD stage 3A, 3B and 4; assay: Phase III trial of empagliflozin as add-on to existing therapy in patients with T2DM and CKD stage 3A, 3B and 4; format: in vivo, human; conditions: EMPA 25 mg; for AEs consistent with urinary tract infection, patients / AEs consistent with volume depletion, patients / adverse events (AEs) reported, patients: 52 weeks
Procedure: A Phase III trial investigated the efficacy and safety of empagliflozin (EMPA) as add-on to existing therapy for 52 weeks in patients with T2DM and CKD stage 3A, 3B and 4. Patients with CKD stage 3A (eGFR [MDRD equation] ≥45 to <60 ml/min/1.73 m^2; n=180; mean [SD] age 64.5 [8.0] years; mean [SD] BMI 30.5 [5.2] kg/m^2), CKD stage 3B (eGFR ≥30 to <45 ml/min/1.73 m^2; n=194; mean [SD] age 65.2 [9.0] years; mean [SD] BMI 30.0 [5.4] kg/m^2) or CKD stage 4 (eGFR ≥15 to <30 ml/min/1.73 m^2; n=74; mean [SD] age 64.1 [11.1] years; mean [SD] BMI 30.4 [5.6] kg/m^2) received EMPA 25 mg qd or PBO for 52 weeks. In exploratory analyses, we assessed the long-term efficacy and safety of EMPA, including changes from baseline in HbA1c, fasting plasma glucose (FPG), weight and systolic and diastolic blood pressure (SBP and DBP) at week 52 (FIG. 7).

[2] = tested on: patients with T2DM and RI; assay: Phase III trial of empagliflozin as add-on to existing therapy in patients with T2DM and renal impairment; format: in vivo, human
Procedure: A Phase III trial investigated the efficacy and safety of empagliflozin (EMPA) as add-on to existing therapy for 52 weeks in patients with T2DM and RI. Patients with mild RI (eGFR [MDRD equation] ≥60 to <90 mL/min/1.73 m^2; n=290; mean age 62.6 years; mean BMI 31.5 kg/m^2) received EMPA 10 or 25 mg qd or placebo (PBO). Patients with moderate RI (eGFR ≥30 to <60 mL/min/1.73 m^2; n=374; mean age 64.9 years; mean BMI 30.2 kg/m^2) received EMPA 25 mg qd or PBO. The primary endpoint was change from baseline in HbA1c at week 24. Exploratory endpoints included changes from baseline in fasting plasma glucose (FPG), weight and blood pressure (BP) at week 24 (FIG. 1).

renal glucose absorption = assay: PK-PD nonlinear mixed-effects model of empagliflozin exposure vs urinary glucose excretion / renal glucose threshold; format: in vivo, human
From the text: Empagliflozin, a selective and potent SGLT2 inhibitor, reduces renal glucose reabsorption by lowering the renal threshold for glucose (RTG) leading to increased urinary glucose excretion (UGE) and decreased plasma glucose (PG) in patients with type 2 diabetes mellitus (T2DM). This analysis aimed to quantify the impact of empagliflozin on RTG by characterizing the relationship between empagliflozin exposure and UGE in patients with T2DM using nonlinear mixed-effects modeling.
A pharmacokinetic (PK)-pharmacodynamic (PD) model was developed using UGE, PG, PK and estimated glomerular filtration rate (eGFR) data from three Phase I/II trials (N=223; placebo, empagliflozin 1 to 100 mg once daily [QD]). The model assumed that when PG>RTG, UGE increased with increasing PG and eGFR; and when PG≤RTG slight glucose leakage into urine occurred (estimated as fraction reabsorbed [FRAC]). Reabsorption was estimated by a nonlinear function parameterized in terms of maximum reabsorbed glucose concentration (Gmax) and PG concentration to reach half maximum transport (Km). Maximum inhibitory effect (Imax) and half maximal inhibitory concentration (IC50) described inhibition of renal glucose absorption. RTG was calculated as the difference between maximum reabsorption (including drug effect) and KM. The model was evaluated via bootstrap and external predictive check of an empagliflozin renal impairment study.

## CN(C)C(=N)N=C(N)N [metformin]
The diabetic
  average improvement in the HbA1c value: 1.0-1.5%

## OC[C@H]1O[C@@H](c2ccc(Cl)c(Cc3ccc(O[C@H]4CCOC4)cc3)c2)[C@H](O)[C@@H](O)[C@@H]1O [empagliflozin, 1-chloro-4-(β-D-glucopyranos-1-yl)-2-[4-((S)-tetrahydrofuran-3-yloxy)-benzyl]benzene]
[1]; CKD stage 3A
  AEs consistent with urinary tract infection, patients: 16.5%
  AEs consistent with volume depletion, patients: 4.4%
  adverse events (AEs) reported, patients: 86.8%
[1]; CKD stage 3B
  AEs consistent with urinary tract infection, patients: 16.7%
  AEs consistent with volume depletion, patients: 3.1%
  adverse events (AEs) reported, patients: 80.2%
[1]; CKD stage 4
  AEs consistent with urinary tract infection, patients: 18.9%
  AEs consistent with volume depletion, patients: 5.4%
  adverse events (AEs) reported, patients: 91.9%
[1]; week 52, CKD stage 3A
  DBP: significantly reduced
  FPG: significantly reduced
  HbA1c vs PBO: significantly reduced
  SBP: significantly reduced
  weight: significantly reduced
[1]; week 52, CKD stage 3B
  FPG: significantly reduced
  HbA1c vs PBO: significantly reduced
  weight: significantly reduced
[1]; week 52, CKD stage 4
  BP: Reductions
  FPG: Reductions
  HbA1c: did not reduce
  weight: Reductions
[2]; EMPA 10 mg qd
  AEs consistent with genital infection, patients: 6.1%
  AEs consistent with urinary tract infection, patients: 10.2%
  Hypoglycemia (plasma glucose ≤70 mg/dL and/or requiring assistance), patients: 23.5%
[2]; EMPA 10 mg qd, week 24, all patients
  adverse events (AEs) reported, patients: 79.6%
[2]; EMPA 25 mg qd
  AEs consistent with genital infection, patients: 2.5%
  AEs consistent with urinary tract infection, patients: 9.0%
  Hypoglycemia (plasma glucose ≤70 mg/dL and/or requiring assistance), patients: 22.1%
[2]; EMPA 25 mg qd, week 24, all patients incl. exploratory severe RI group
  adverse events (AEs) reported, patients: 75.4%
[2]; Week 24, moderate A renal impairment
  difference to placebo for the adjusted mean change in HbA1c from baseline: −0.46%
[2]; Week 24, moderate B renal impairment
  difference to placebo for the adjusted mean change in HbA1c from baseline: −0.39%
[2]; patients with T2DM and mild or moderate RI
  tolerability: well tolerated
[2]; week 24, further analyses
  BP: significant reductions
  FPG: significant reductions
  weight: significant reductions
[2]; week 24, mild or moderate RI
  HbA1c vs PBO: significantly reduced
Renal glucose absorption; Homo sapiens, model parameter estimate, three Phase I/II trials, N=223, read-out: IC50, half maximal inhibitory concentration for renal glucose absorption (95% CI)
  IC50: 5.28 nM
Renal glucose absorption; dose 1 mg
  RTG (renal threshold for glucose): 100.5 mg/dL
Renal glucose absorption; dose 5 mg
  RTG (renal threshold for glucose): 43.8 mg/dL
Renal glucose absorption; dose 10 mg
  RTG (renal threshold for glucose): 33.1 mg/dL
Renal glucose absorption; dose 25 mg
  RTG (renal threshold for glucose): 26.0 mg/dL
Renal glucose absorption; model parameter estimate, three Phase I/II trials, N=223
  Imax, maximum inhibitory effect on renal glucose absorption (95% CI): 0.559 (0.545, 0.607)
